Assay results as given in patent US20250197420A1, “MACROCYCLIC COMPOUNDS, COMPOSITIONS, AND METHODS OF USING THEREOF” (Sionna Therapeutics Inc., priority 2022, published 2025).

Molecular target: T1, Purified recombinant NBD1 (Homo sapiens, UniProt P13569)
T1 construct: Purified recombinant NBD1 was produced using previously described methods; made in house
Assay: Aggregation analysis using differential static light scattering (DSLS): thermal stability of NBD1
Type: binding
Conditions: NBD1 0.2 mg/ml; Tagg of compound well minus average Tagg of DMSO control wells
Description: Purified recombinant NBD1 was produced using previously described methods (A. Schmidt, J. L. Mendoza, P. J. Thomas (2011) Biochemical and Biophysical Approaches to Probe CFTR Structure (365-376) M. D. Amaral, K. Kunzelmann (eds.), Cystic Fibrosis, Methods in Molecular Biology 741, Springer Science+Business Media). The effect of test compounds on thermal stability of NBD1 was evaluated by differential static light scattering (DSLS) using the Harbinger Stargazer-384 instrument (Epiphyte Three, Toronto, Canada). Test compounds were dissolved and diluted to desired concentrations in 100% DMSO. The compounds or DMSO controls (100 nL) were stamped into wells of a […] low volume optical plate (Corning Inc., Corning, NY) using the Echo 555 acoustic liquid handler (Labcyte Inc., San Jose, CA).
NBD1 protein was diluted to 0.2 mg/ml in S200 buffer (50 mM Tris-HCl, 150 mM NaCl, 5 mM MgCl2, 2 mM ATP, 2 mM DTT, pH7.6) containing 1% glycerol. 10 uL of protein solution was aliquoted into the 384-well plate harboring the test compounds and 10 uL mineral oil was overlaid onto the protein solution, using the epMotion robotic liquid handler (Eppendorf North America, Hauppauge, NY). After placing into the Stargazer instrument, the plate was heated at 1° C. per minute to 70° C. Images were captured from 25° C. to 70° C. every 0.5° C. At the end of the experiment run, instrument software integrated image files and analyzed data automatically. A […] regression curve was generated for each well, representing the increase in light scattering over time. A temperature of aggregation (Tagg) was calculated based on the inflection point of the curve. To better compare data across experiments the average Tagg for DMSO control wells was calculated and subtracted from values for wells containing compounds to obtain a “ΔTagg” value. These ΔTagg values reflect stabilizing efficacy of the compounds. As set forth in Table 2 below, an ΔTagg value less than or equal to 5° C. is marked “A”; a value above 5° C. and less than or equal to 10° C. is marked “B”; a value greater than 10° C. and less than or equal to 25° C. is marked “C”.

T1 sequence (P13569 423-646 limits assumed): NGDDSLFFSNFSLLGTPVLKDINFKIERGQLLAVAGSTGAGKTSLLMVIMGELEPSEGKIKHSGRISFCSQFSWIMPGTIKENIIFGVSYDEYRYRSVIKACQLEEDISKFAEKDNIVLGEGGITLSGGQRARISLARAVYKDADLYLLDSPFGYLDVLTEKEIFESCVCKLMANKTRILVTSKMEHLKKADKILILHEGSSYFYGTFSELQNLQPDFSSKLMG

| Compound | DSLS (ΔTagg) |
| --- | --- |
| CN1CC(C)(C)COCC(C)(c2cccc(CCC(=O)O)c2)c2cnc([nH]2)-c2cc(ccc2F)Oc2c(F)cc3[nH]ccc3c2CCC1=O (racemic) [Compound 20A, 3-[3-(23,29-Difluoro-6,10,10,12-tetramethyl-13-oxo-8,25-dioxa-3,12,20,31-tetrazapentacyclo[24.3.1.12,5.016,24.017,21]hentriaconta-1(30),2,4,16,18,21,23,26,28-nonaen-6-yl)phenyl]propanoic acid] | C (a value greater than 10 °C and less than or equal to 25 °C is marked “C”) |
| CCOC(=O)CCc1cccc(C2(C)CCCC(C)(C)CN(C)C(=O)CCc3c(c(F)cc4[nH]ccc34)Oc3ccc(F)c(c3)-c3ncc2[nH]3)c1 (single isomer, unassigned) [Compound 48A, ethyl 3-[3-(23,29-difluoro-6,10,10,12-tetramethyl-13-oxo-25-oxa-3,12,20,31-tetrazapentacyclo-[24.3.1.12,5.016,24.017,21]hentriaconta-1(30),2,4,16,18,21,23,26,28-nonaen-6-yl)phenyl]propanoate] | A (an ΔTagg value less than or equal to 5 °C is marked “A”) |
| CCOC(=O)CCc1cccc(C2(C)CCCC(C)(C)CN(C)C(=O)CCc3c(c(F)cc4[nH]ccc34)Oc3ccc(F)c(c3)-c3ncc2[nH]3)c1 (single isomer, unassigned) [Compound 48B, ethyl 3-[3-(23,29-difluoro-6,10,10,12-tetramethyl-13-oxo-25-oxa-3,12,20,31-tetrazapentacyclo-[24.3.1.12,5.016,24.017,21]hentriaconta-1(30),2,4,16,18,21,23,26,28-nonaen-6-yl)phenyl]propanoate] | A (an ΔTagg value less than or equal to 5 °C is marked “A”) |
| O=C(O)CCc1cccc(C2CCCCCNC(=O)CCc3c(c(F)cc4[nH]ccc34)Oc3ccc(F)c(c3)-c3ncc2[nH]3)c1 (centres unmarked) [Compound 1, 3-[3-(23,29-difluoro-13-oxo-25-oxa-3,12,20,31-tetrazapentacyclo[24.3.1.12,5.016,24.017,21]hentriaconta-1(30),2,4,16,18,21,23,26,28-nonaen-6-yl)phenyl]propanoic acid] | B (a value above 5 °C and less than or equal to 10 °C is marked “B”) |
| O=C1CCc2c(c(F)cc3[nH]ccc23)Oc2ccc(F)c(c2)-c2ncc([nH]2)C(c2ccccc2)CCCCCN1 (centres unmarked) [Compound 2, 23,29-Difluoro-6-phenyl-25-oxa-3,12,20,31-tetrazapentacyclo[24.3.1.12,5.016,24.017,21]hentriaconta-1(30),2,4,16,18,21,23,26,28-nonaen-13-one] | C (a value greater than 10 °C and less than or equal to 25 °C is marked “C”) |
| O=C(O)CCc1cccc(C2CCCCCCNC(=O)CCc3c(c(F)cc4[nH]cnc34)Oc3ccc(F)c(c3)-c3ncc2[nH]3)c1 (centres unmarked) [Compound 5, 3-[3-(24,30-Difluoro-14-oxo-26-oxa-3,13,19,21,32-pentazapentacyclo-[25.3.1.12,5.017,25.018,22]dotriaconta-1(31),2,4,17,19,22,24,27,29-nonaen-6-yl)phenyl]propanoic acid] | B (a value above 5 °C and less than or equal to 10 °C is marked “B”) |
| O=C(O)CCc1cccc(C2CCCCCCNC(=O)Cc3c(c(F)cc4[nH]ccc34)Oc3ccc(F)c(c3)-c3ncc2[nH]3)c1 (centres unmarked) [Compound 6, 3-[3-(23,29-Difluoro-14-oxo-25-oxa-3,13,20,31-tetrazapentacyclo-[24.3.1.12,5.016,24.017,21]hentriaconta-1(30),2,4,16,18,21,23,26,28-nonaen-6-yl)phenyl]propanoic acid] | C (a value greater than 10 °C and less than or equal to 25 °C is marked “C”) |
| CC(Cc1cccc(C2CCCCCNC(=O)CCc3c(c(F)cc4[nH]ccc34)Oc3ccc(F)c(c3)-c3ncc2[nH]3)c1)C(=O)O (centres unmarked) [Compound 7, 3-[3-(23,29-Difluoro-13-oxo-25-oxa-3,12,20,31-tetrazapentacyclo-[24.3.1.12,5.016,24.017,21]hentriaconta-1(30),2,4,16,18,21,23,26,28-nonaen-6-yl)phenyl]-2-methyl-propanoic acid] | C (a value greater than 10 °C and less than or equal to 25 °C is marked “C”) |
| CN1Cc2c(c(F)cc3[nH]ccc23)Oc2ccc(F)c(c2)-c2ncc([nH]2)C(c2cccc(CCC(=O)O)c2)CCCCCCC1=O (centres unmarked) [Compound 9, 3-[3-(23,29-Difluoro-14-methyl-13-oxo-25-oxa-3,14,20,31-tetrazapentacyclo[24.3.1.12,5.016,24.017,21]hentriaconta-1(30),2,4,16(24),17(21),18,22,26,28-nonaen-6-yl)phenyl]propanoic acid] | C (a value greater than 10 °C and less than or equal to 25 °C is marked “C”) |
| O=C(O)CCc1cccc(C2CCCC(=O)NCCCc3c(c(F)cc4[nH]ccc34)Oc3ccc(F)c(c3)-c3ncc2[nH]3)c1 (centres unmarked) [Compound 11, 3-[3-(22,28-Difluoro-10-oxo-24-oxa-3,11,19,30-tetrazapentacyclo[23.3.1.12,5.015,23.016,20]triaconta-1(28),2,4,15(23),16(20),17,21,25(29),26-nonaen-6-yl)phenyl]propanoic acid] | C (a value greater than 10 °C and less than or equal to 25 °C is marked “C”) |
| CC1(C)CCCC(C)(c2cccc(CCC(=O)O)c2)c2cnc([nH]2)-c2cc(ccc2F)Oc2c(F)cc3[nH]ccc3c2CCC(=O)NC1 (centres unmarked) [Compound 12, 3-[3-(23,29-Difluoro-6,10,10-trimethyl-13-oxo-25-oxa-3,12,20,31-tetrazapentacyclo[24.3.1.12,5.016,24.017,21]hentriaconta-1(30),2,4,16,18,21,23,26,28-nonaen-6-yl)phenyl]propanoic acid] | C (a value greater than 10 °C and less than or equal to 25 °C is marked “C”) |
| O=C1CCc2c(c(F)cc3[nH]ccc23)Oc2ccc(F)c(c2)-c2ncc([nH]2)C(c2ccccc2)CCCCS(=O)(=O)N1 (centres unmarked) [Compound 13, 23,29-Difluoro-11,11-dioxo-6-phenyl-25-oxa-116-thia-3,12,20,31-tetrazapentacyclo[24.3.1.12,5.016,24.017,21]hentriaconta-1(30),2,4,16,18,21,23,26,28-nonaen-13-one] | C (a value greater than 10 °C and less than or equal to 25 °C is marked “C”) |
| CN1Cc2c(c(F)cc3[nH]ccc23)Oc2ccc(F)c(c2)-c2ncc([nH]2)C(C)(c2cccc(CCC(=O)O)c2)CCCCCCC1=O (centres unmarked) [Compound 14, 3-[3-(23,29-Difluoro-6,14-dimethyl-13-oxo-25-oxa-3,14,20,31-tetrazapentacyclo[24.3.1.12,5.016,24.017,21]hentriaconta-1(30),2,4,16(24),17(21),18,22,26,28-nonaen-6-yl)phenyl]propanoic acid] | C (a value greater than 10 °C and less than or equal to 25 °C is marked “C”) |
| O=C(O)CCc1cccc(C2CCC(F)(F)CNC(=O)CCc3c(c(F)cc4[nH]ccc34)Oc3ccc(F)c(c3)-c3ncc2[nH]3)c1 (centres unmarked) [Compound 15, 3-[3-(9,9,22,28-Tetrafluoro-12-oxo-24-oxa-3,11,19,30-tetrazapentacyclo[23.3.1.12,5.015,23.016,20]triaconta-1(28),2,4,15(23),16(20),17,21,25(29),26-nonaen-6-yl)phenyl]propanoic acid] | C (a value greater than 10 °C and less than or equal to 25 °C is marked “C”) |
| CC1(c2cccc(CCC(=O)O)c2)CCCCC(=O)NCCc2c(c(F)cc3[nH]ccc23)Oc2ccc(F)c(c2)-c2ncc1[nH]2 (centres unmarked) [Compound 16, 3-[3-(22,28-Difluoro-6-methyl-11-oxo-24-oxa-3,12,19,30-tetrazapentacyclo[23.3.1.12,5.015,23.016,20]triaconta-1(29),2,4,15,17,20,22,25,27-nonaen-6-yl)phenyl]propanoic acid] | C (a value greater than 10 °C and less than or equal to 25 °C is marked “C”) |
| CC1(c2cccc(CCC(=O)O)c2)CCCC(=O)NCCCc2c(c(F)cc3[nH]ccc23)Oc2ccc(F)c(c2)-c2ncc1[nH]2 (centres unmarked) [Compound 17, 3-[3-(22,28-Difluoro-6-methyl-10-oxo-24-oxa-3,11,19,30-tetrazapentacyclo[23.3.1.12,5.015,23.016,20]triaconta-1(29),2,4,15,17,20,22,25,27-nonaen-6-yl)phenyl]propanoic acid] | C (a value greater than 10 °C and less than or equal to 25 °C is marked “C”) |
| CN1CCCCCC(C)(c2cccc(CCC(=O)O)c2)c2cnc([nH]2)-c2cc(ccc2F)Oc2c(F)cc3[nH]ccc3c2CC(C)(C)C1=O (centres unmarked) [Compound 18, 3-[3-(23,29-Difluoro-6,12,14,14-tetramethyl-13-oxo-25-oxa-3,12,20,31-tetrazapentacyclo[24.3.1.12,5.016,24.017,21]hentriaconta-1(30),2,4,16,18,21,23,26,28-nonaen-6-yl)phenyl]propanoic acid] | A (an ΔTagg value less than or equal to 5 °C is marked “A”) |
